Experimental data as given in PubChem BioAssay (NCI).
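Tested at 5 concentrations; 48 h exposure; 96-well plates; endpoints linearly interpolated, else capped at highest concentration. GI50: concentration for 50% inhibition of growth. TGI: total growth inhibition.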

System: SR leukemia
Assay: DTP human tumour cell line panel, 48 h

| SMILES | TGI | GI50 |
| --- | --- | --- |
| Cc1cc(C)nc(NS(=O)(=O)c2ccc(Nc3c4ccccc4nc4c(C(=O)N5CCN(CCOS(C)(=O)=O)CC5)ccc(Cl)c34)cc2)n1 | > 100 µM |  |
| CC(O)CN1C(=O)NC(Cc2ccccc2)C1=O (stereo not given) | > 100 µM |  |
| O=C(c1ccccc1)[C@H]1Nc2cnccc2C2c3ccccc3CC21 (stereo not given in full) | 61.6 µM |  |
| COc1ccc(C(=O)C(C(=O)CCC(=O)Nc2cccc(C(F)(F)F)c2)c2ccccc2)cc1 (stereo not given) | > 100 µM |  |
| COC(=O)/C(=N\NC(=S)NN)C(C(=O)C(=O)Nc1ccccc1C(N)=O)c1nc2ccccc2[nH]c1=O (stereo not given) | > 100 µM |  |
| CC/C=C\C/C=C\C1CC(=O)NCCCNCCCCN1 (stereo not given) | > 100 µM |  |
| CCCS(=O)(=O)c1nc(NC2CC2)cc(-c2ccc3c(ccn3C3CC(C)(C)NC(C)(C)C3)c2)n1 | 0.784 µM | 0.256 µM |
| N#CC(C#N)=Cc1cccc(Oc2ccccc2)c1 | 61.3 µM |  |
| COc1ccc(/C=C/C(=O)c2sc(-n3nc(-c4ccccc4)cc3-c3ccccc3)nc2C)cc1OC | 78.2 µM |  |
| NC(CCSCC(F)F)C(=O)O (stereo not given) | > 100 µM |  |

System: UACC-257 melanoma
Assay: DTP human tumour cell line panel, 48 h

| SMILES | TGI | GI50 |
| --- | --- | --- |
| CN(C)C(=S)/N=c1\ss/c(=N\S(=O)(=O)c2ccccc2)n1-c1ccccc1 | > 100 µM |  |
| COc1cc2c3c(n(CCCN4CCC(N)CC4)c(=O)c2cc1OC)-c1cc2c(cc1C3=O)OCO2 | 17.9 µM | 7.9 µM |
| C=C(C)[C@@H]1CC[C@@]2(C(=O)O)CC[C@]3(C)C(CCC4[C@@]5(C)CCC(OS(=O)(=O)c6ccccc6)C(C)(C)C5CC[C@]43C)C12 (stereo not given in full) | 39.6 µM | 4.76 µM |
| O=C(N/N=C/c1ccc(Cl)cc1Cl)c1ccccc1Nc1cccc(C(F)(F)F)c1 | 25.4 µM | 4.27 µM |
| CCOC(=O)Cc1nc(/C(C#N)=C/c2ccco2)[nH]c(=O)c1C#N | > 100 µM |  |
| CC1=Nc2c(ccc3c2C(=O)c2ccccc2C3=O)NC(c2ccncc2)C1 (stereo not given) | > 100 µM | > 100 µM |
| COc1cc(/C=C\c2ccc(O)cc2)cc(OC)c1OC | > 100 µM |  |
| Cc1ccsc1C(=S)Nc1ccc(Cl)c(C(=O)OC(C(C)C)C(C)C)c1 | > 100 µM |  |
| CC1(C)CCc2cc3c(cc2O1)OCCC3=O | > 100 µM |  |
| Oc1c2c(c(O)c3ccccc13)=N[C@@H](c1ccccc1)[C@H](c1ccccc1)N=2 | > 100 µM |  |
| O=C1CCn2c([nH]c3cccc4cccc2c43)=N1 | > 100 µM |  |
| CCOc1cccc2nc3cccc(C(=O)NCCN(C)C)c3nc12 | 6.45 µM |  |
| Cc1cc(C)nc(NS(=O)(=O)c2ccc(Nc3c4ccccc4nc4c(C(=O)N5CCN(CCOS(C)(=O)=O)CC5)ccc(Cl)c34)cc2)n1 | > 100 µM |  |
| Clc1cc(Cl)c2c(Cl)cc(Cl)c3c2c1N=S=N3 | > 100 µM |  |
| C=CC(=O)N1CCN(c2ncnc3c(F)c(-c4c(O)cccc4F)c(Cl)cc23)CC1 | 30.4 µM | 14.4 µM |
| CC(=O)OCCOCBr | > 100 µM |  |

| SMILES | TGI | GI50 |
| --- | --- | --- |
| O=C1c2ccccc2-c2c1c1ccccc1c(=O)n2CCNCCCNCCn1c2c(c3ccccc3c1=O)C(=O)c1ccccc1-2 | 2.91 µM | 1.17 µM |
| CC(O)CN1C(=O)NC(Cc2ccccc2)C1=O (stereo not given) | > 100 µM |  |
| O=C(c1ccccc1)[C@H]1Nc2cnccc2C2c3ccccc3CC21 (stereo not given in full) | 26.1 µM |  |
| COc1ccc(C(=O)C(C(=O)CCC(=O)Nc2cccc(C(F)(F)F)c2)c2ccccc2)cc1 (stereo not given) | > 100 µM |  |
| NC1=NC(=O)C(CC(=O)Nc2ccc([N+](=O)[O-])cc2[N+](=O)[O-])S1 (stereo not given) | > 100 µM |  |
| O=C1c2ccccc2-c2cccc3ccc(Cc4ccccc4)c1c23 | > 100 µM |  |
| COC(=O)/C(=N\NC(=S)NN)C(C(=O)C(=O)Nc1ccccc1C(N)=O)c1nc2ccccc2[nH]c1=O (stereo not given) | > 100 µM |  |
| CC/C=C\C/C=C\C1CC(=O)NCCCNCCCCN1 (stereo not given) | > 100 µM |  |
| CC1CCCC(C(=O)/C(=C/c2cccc(Cl)c2)C(=O)C(=O)O)C1 (stereo not given) | > 100 µM |  |
| CC(=O)c1c(C)n([O-])c2cc(C)c(C)cc2[n+]1=O | > 100 µM |  |
| C=C1C(=O)O[C@H]2[C@H]1CC/C(COC(=O)c1cc3cc(OC)ccc3[nH]1)=C\CC[C@@]1(C)O[C@@H]21 | 3 µM | 1.61 µM |
| N#CC(C#N)=Cc1cccc(Oc2ccccc2)c1 | 28.1 µM |  |
| COc1ccc(/C=C/C(=O)c2sc(-n3nc(-c4ccccc4)cc3-c3ccccc3)nc2C)cc1OC | > 100 µM |  |
| COC(=O)c1c(O)ccc2[nH]c(C)c(C#N)c12 | > 100 µM | > 100 µM |
| NC(CCSCC(F)F)C(=O)O (stereo not given) | > 100 µM |  |
